The NIST ThermoML archive (doi:10.1016/j.jct.2012.12.001)

Assay: heat capacity at constant pressure per volume; xn = mol fraction of the nth substance listed
Settings: 101 kPa, Liquid, DSC, x2 = 0.713

CCCCCCCCCCCCCCCCCC [octadecane] + N#Cc1ccccc1
Settings | heat capacity [J/K/m3]
303.58 K | 1893500
303.61 K | 1895600
303.64 K | 1894200
303.66 K | 1894100
303.69 K | 1893500
303.72 K | 1893700
303.75 K | 1897900
303.78 K | 1897000
303.8 K | 1893000
303.83 K | 1895200
303.86 K | 1892600
303.89 K | 1900300
303.92 K | 1898300
303.94 K | 1898400
303.97 K | 1899900
304 K | 1891800
304.03 K | 1897900
304.06 K | 1900800
304.09 K | 1899300
304.11 K | 1897800
304.14 K | 1899100
304.17 K | 1900600
304.2 K | 1897100
304.23 K | 1902700
304.25 K | 1900600
304.28 K | 1893900
304.31 K | 1900100
304.34 K | 1897300
304.37 K | 1899500
304.39 K | 1898900
304.42 K | 1904200
304.45 K | 1900400
304.48 K | 1895000
304.51 K | 1898500
304.54 K | 1903400
304.56 K | 1902200
304.59 K | 1903900
304.62 K | 1901200
304.65 K | 1901800
304.68 K | 1903500
304.7 K | 1904200
304.73 K | 1899600
304.76 K | 1899700
304.79 K | 1900400
304.82 K | 1904800
304.84 K | 1903700
304.87 K | 1904600
304.9 K | 1904600
304.93 K | 1903200
304.96 K | 1902600
304.98 K | 1900600
305.01 K | 1902200
305.04 K | 1902200
305.07 K | 1903000
305.1 K | 1907100
305.12 K | 1903100
305.15 K | 1908100
305.18 K | 1904700
305.21 K | 1904200
305.24 K | 1905700
305.27 K | 1907500
305.29 K | 1908300
305.32 K | 1908600
305.35 K | 1908400
305.38 K | 1906900
305.41 K | 1907700
305.44 K | 1908100
305.46 K | 1909400
305.49 K | 1908500
305.52 K | 1909000
305.55 K | 1908400
305.57 K | 1909200
305.6 K | 1906500
305.63 K | 1908200
305.66 K | 1908500
305.69 K | 1909100
305.72 K | 1909500
305.74 K | 1911100
305.77 K | 1910000
305.8 K | 1907500
305.83 K | 1908700
305.86 K | 1914100
305.88 K | 1911500
305.91 K | 1910100
305.94 K | 1909200
305.97 K | 1909700
306 K | 1906900
306.02 K | 1909600
306.05 K | 1913100
306.08 K | 1913500
306.11 K | 1917400
306.14 K | 1917300
306.17 K | 1913000
306.19 K | 1914700
306.22 K | 1914300
306.25 K | 1915600
306.28 K | 1918100
306.31 K | 1915700
306.33 K | 1916100
306.36 K | 1913300
306.39 K | 1910700
306.42 K | 1914500
306.45 K | 1911200
306.48 K | 1914800
306.5 K | 1918100
306.53 K | 1921200
306.56 K | 1920200
306.59 K | 1916400
306.62 K | 1922000
306.64 K | 1923600
306.67 K | 1922600
306.7 K | 1921800
306.73 K | 1922000
306.76 K | 1921100
306.78 K | 1915500
306.81 K | 1915900
306.84 K | 1920400
306.87 K | 1916900
306.9 K | 1923600
306.93 K | 1927300
306.95 K | 1929700
306.98 K | 1927500
307.01 K | 1924100
307.04 K | 1928000
307.06 K | 1932100
307.09 K | 1924600
307.12 K | 1927400
307.15 K | 1929100
307.18 K | 1928200
307.21 K | 1926400
307.23 K | 1925500
307.26 K | 1931000
307.29 K | 1928800
307.32 K | 1935200
307.35 K | 1931700
307.37 K | 1930400
307.4 K | 1932600
307.43 K | 1934400
307.46 K | 1934700
307.49 K | 1935300
307.51 K | 1940700
307.54 K | 1937500
307.57 K | 1936300
307.6 K | 1936200
307.63 K | 1932400
307.66 K | 1937300
307.68 K | 1942100
307.71 K | 1944000
307.74 K | 1939900
307.77 K | 1932400
307.8 K | 1938300
307.82 K | 1947000
307.85 K | 1949300
307.88 K | 1946700
307.91 K | 1938400
307.94 K | 1933900
307.96 K | 1951300
307.99 K | 1961700
308.02 K | 1944900
308.05 K | 1926900
308.08 K | 1941200
308.11 K | 1958000
308.13 K | 1970100
308.16 K | 1961600
308.19 K | 1937100
308.22 K | 1930400
308.25 K | 1946700
308.27 K | 1964400
308.3 K | 1971900
308.33 K | 1970700
308.36 K | 1959500
308.39 K | 1936500
308.42 K | 1912300
308.44 K | 1924300
308.47 K | 1951900
308.5 K | 2008600
308.53 K | 2043600
308.56 K | 2018100
308.58 K | 1941300
308.61 K | 1912700
308.64 K | 1927600
308.67 K | 1961900
308.7 K | 1999600
308.72 K | 2029400
308.75 K | 2032700
308.78 K | 1994600
308.81 K | 1952000
308.84 K | 1951000
308.87 K | 1967200
308.89 K | 1986400
308.92 K | 2016500
308.95 K | 2025600
308.98 K | 1992600
309 K | 1977300
309.03 K | 1975500
309.06 K | 1984100
309.09 K | 2003300
309.12 K | 2020100
309.15 K | 2018700
309.17 K | 2001300
309.2 K | 1997100
309.23 K | 1999200
309.26 K | 2022000
309.29 K | 2056100
309.31 K | 2064600
309.34 K | 2035200
309.37 K | 2025000
309.4 K | 2039600
309.43 K | 2070400
309.45 K | 2095200
309.48 K | 2108700
309.51 K | 2150900
309.54 K | 2201100
309.57 K | 1939300
309.6 K | 1869500
309.62 K | 1848200
309.65 K | 1833800
309.68 K | 1826700
309.71 K | 1819300
309.74 K | 1817500
309.76 K | 1810200
309.79 K | 1806800
309.82 K | 1803600
309.85 K | 1800700
309.88 K | 1798700
309.9 K | 1794300
309.93 K | 1792100
309.96 K | 1792800
309.99 K | 1790300
310.02 K | 1787500
310.05 K | 1785800
310.07 K | 1787100
310.1 K | 1782100
310.13 K | 1784300
310.16 K | 1779800
310.19 K | 1779800
310.21 K | 1778600
310.24 K | 1778600
310.27 K | 1775500
310.3 K | 1773400
310.33 K | 1772700
310.35 K | 1774100
310.38 K | 1771100
310.41 K | 1773500
310.44 K | 1771400
310.47 K | 1770500
310.5 K | 1768500
310.52 K | 1769800
310.55 K | 1768900
310.58 K | 1766300
310.61 K | 1764600
310.64 K | 1764400
310.66 K | 1764600
310.69 K | 1763300
310.72 K | 1763400
310.75 K | 1765000
310.78 K | 1762800
310.8 K | 1762200
310.83 K | 1757300
310.86 K | 1761100
310.89 K | 1760100
310.92 K | 1760700
310.94 K | 1761100
310.97 K | 1760600
311 K | 1759800
311.03 K | 1759800
311.06 K | 1758100
311.09 K | 1757600
311.11 K | 1758300
311.14 K | 1758800
311.17 K | 1757800
311.2 K | 1757900
311.23 K | 1756900
311.25 K | 1754900
311.28 K | 1754400
